The values that follow come from ChEMBL document CHEMBL3507680, “University of Dundee, Gates Library screen for HepG2 cell viability”.

SMILES strings stand for the structures.

The nature of the data set: Human HepG2 cell viability assay in 384 well format. Also noted: dose 125 nL, time 70.5 hour; concentration not given beside the values. Particulars: HepG2 cells, read-out: Inhibition. The format is toxicity, cell-based.
With `COC(=O)N1CCCC(C(=O)Nc2nc(C)c(SC)s2)C1` (stereo not given), the cytotoxicity at 70.5 h is -9.54%. Regarding `CCc1nsc(N2CCN(C(=O)c3ccnc(N(C)C)c3)CC2)n1`, the cytotoxicity at 70.5 h was -6.45%. As for `Cn1cc(CNCCc2nccs2)c(-c2cccnc2)n1`, the cytotoxicity at 70.5 h was -8.44%. In the case of `Cc1nc(NC(=O)COCC2CC2)ccc1Br` it was -8.55%. Then `CN(Cc1nc2ccccc2c(=O)[nH]1)C1CC(=O)N(C2CC2)C1=O` (stereo not given), with -12.1%. In the case of `COC(=O)c1ccc(CNC(C)c2ccc(S(C)(=O)=O)cc2)cc1` (stereo not given) it was -1.14%; in that of `CC(=O)NCCNC(=O)NCCc1c(C)cc(C)cc1C`, 0.521%; in that of `Cc1ccc(F)c(S(=O)(=O)NCc2cccc(N3CCOC3=O)c2)c1`, -4.03%. For the compound `N#Cc1cnc(NCc2ccc(C(=O)NC3CC3)cc2)c(Cl)c1`, the cytotoxicity at 70.5 h was -4.64%. For the compound `CS(=O)(=O)Cc1ccc(CNc2ncc(C#N)cc2Cl)cc1`, the cytotoxicity at 70.5 h was 1.58%. In the case of `Cc1c(NC(=O)NC2CCCC2)cccc1C(=O)N1CCSCC1` it was -3.56%. Then `Cc1nc2scc(C)n2c1CNc1ccc(C(=O)O)cc1`, with 19.2%; and `CCc1nc(CC(=O)N2CCC(C(=O)N3CCCC3)CC2)cs1`, with -9.83%; and `CN(Cc1nnnn1C1CC1)c1cccc2ccccc12`, with 0.192%. Then `Cc1nc(CNC(=O)Nc2ccc(N(C)C)nc2)sc1C`, with -2.95%; and `O=C1C(Sc2nc(=O)ccn2C2CC2)CCN1c1ccccc1` (stereo not given), with 0.555%; and `O=C(CC(F)(F)F)NCC(O)c1ccc2ccccc2c1` (stereo not given), with -3.75%. As to `CCOCC(=O)N1CC(=O)Nc2cc(Br)ccc21`, the cytotoxicity at 70.5 h was -6.53%.

As for `CCOCCC(=O)N1CC(=O)Nc2cc(Br)ccc21`, the cytotoxicity at 70.5 h came out at 22%. Turning to `O=C(Nc1ccccc1C(=O)N1CCCC1)NC1CCOCC1`, the cytotoxicity at 70.5 h was -7.16%. As to `CCC(CNS(=O)(=O)c1c[nH]cn1)Oc1ccccc1F` (stereo not given), the cytotoxicity at 70.5 h is -2.67%. Then `CCc1nc(CC(=O)N2CCC(C(=O)N(CC)CC)CC2)cs1`, with -11.2%. `O=C(c1cccnc1)N(CCO)Cc1cc(Br)ccc1F`: the cytotoxicity at 70.5 h was -3.63%. In the case of `Cc1cc(OC(F)F)c(C(=O)N2CC[C@H](O)C2)s1` it was -6.12%. In the case of `Cc1cc(C(=O)CN2CCN(c3ncccn3)CC2)c(C)n1C(C)C`, the cytotoxicity at 70.5 h is 12.3%. Then `O=C(c1ccc(=O)[nH]n1)N(CCO)Cc1cc(Br)ccc1F`, with -5.4%. In the case of `O=C(c1ccccn1)N(CCO)Cc1cc(Br)ccc1F` it was 17.2%. Then `CC(=O)N1CCCN(C(=O)c2ccc(Sc3ccccn3)cc2)CC1`, with -8.48%; and `COc1ccccc1C1(CNCc2ccc(C#N)cc2)CCOCC1`, with -6.31%; and `Cc1noc(C(C)NC(=O)[C@@H](C)NC(=O)OC(C)(C)C)n1` (stereo not given in full), with -3.59%. In the case of `Cc1noc(CNC(=O)[C@@H](C)NC(=O)OC(C)(C)C)n1`, the cytotoxicity at 70.5 h is -2.55%. In the case of `CCC(CC)(CNC(=O)NC1CCCC1(C)C)S(C)(=O)=O` (stereo not given) it was -7.23%; in that of `Cn1cnnc1C1CCCN1C(=O)Nc1cccc(OC(F)F)c1` (stereo not given), -1.48%; in that of `Cc1cc(OC(F)F)c(C(=O)N2CCC(N(C)C)CC2)s1`, 31.3%. Then `COc1ccccc1C1(CNCc2ccc([S+](C)[O-])cc2)CC1` (stereo not given), with -6.54%. In the case of `COc1ccc(OC)c(-n2nnnc2SCC2CCCN(C)C2)c1` (stereo not given) it was -3.08%. For `O=C(c1cccc(CNC/C=C/c2ccccc2)c1)N1CCCC1`, the cytotoxicity at 70.5 h was 4.26%. In the case of `CCc1sc(-c2nnc(CNCCn3cccn3)o2)cc1C` it was -0.343%.

With `CC(NCCCC#N)c1ccc(-c2cccnc2)cc1` (stereo not given), the cytotoxicity at 70.5 h is -2.12%. Then `CCCNCc1cn(Cc2ccccc2)nc1-c1cccnc1`, with -8.99%.
